Data on two compounds can be found in ChEMBL document CHEMBL3045568, “Novel 2-pyrazoline derivatives as potential anticonvulsant agents” (Med Chem Res, 2013).

Data set [1] deals with Mus musculus. The experiment in a line: Anticonvulsant activity in albino Mus musculus (mouse) assessed as protection against maximal electroshock-induced seizures at 30 mg/kg, sc after 0.5 hr relative to control. Details: dose 30 mg/kg. The data set is classed as functional, organism-based. (In the maximal electroshock model the usual endpoint is tonic extension of the hind limbs.)

Data set [2] relates to Mus musculus. The experiment in a line: Anticonvulsant activity in albino Mus musculus (mouse) assessed as protection against maximal electroshock-induced seizures at 30 mg/kg, sc after 4 hr relative to control. It is filed as functional, organism-based. Details: dose 30 mg/kg.
Data set [3] relates to Mus musculus. The experiment in a line: Neurotoxicity in albino Mus musculus (mouse) assessed as motor impairment at 30 mg/kg, sc after 0.5 hr relative to control. To be noted: in vivo. Details: dose 30 mg/kg, route subcutaneous. The data set is classed as toxicity, organism-based.
For data set [4], the system named is Mus musculus. The experiment in a line: Anticonvulsant activity in albino Mus musculus (mouse) assessed as protection against subcutaneous pentylenetetrazol-induced seizures at 30 mg/kg, sc after 4 hr relative to control. It is filed as functional, organism-based. Details: dose 30 mg/kg.
Data set [5] relates to Mus musculus. The experiment in a line: Anticonvulsant activity in albino Mus musculus (mouse) assessed as protection against subcutaneous pentylenetetrazol-induced seizures at 30 mg/kg, sc after 0.5 hr relative to control. It is filed as functional, organism-based. Details: dose 30 mg/kg.
The subject of data set [6] is Mus musculus. The experiment in a line: Neurotoxicity in albino Mus musculus (mouse) assessed as motor impairment at 30 mg/kg, sc after 4 hr relative to control. It is filed as toxicity, organism-based. The arrangement: dose 30 mg/kg, route subcutaneous. To be noted: in vivo.
For data set [7], the system named is Mus musculus. The experiment in a line: Anticonvulsant activity in albino Mus musculus (mouse) assessed as protection against subcutaneous pentylenetetrazol-induced seizures at 100 mg/kg, ip after 0.5 hr relative to control. It is filed as functional, organism-based. The arrangement: dose 100 mg/kg.
In data set [8] the test system is Mus musculus. The experiment in a line: Anticonvulsant activity in albino Mus musculus (mouse) assessed as protection against maximal electroshock-induced seizures at 100 mg/kg, ip after 0.5 hr relative to control. The data set is classed as functional, organism-based. Details: dose 100 mg/kg.
The test system of data set [9] is Mus musculus. The experiment in a line: Anticonvulsant activity in albino Mus musculus (mouse) assessed as protection against subcutaneous pentylenetetrazol-induced seizures at 100 mg/kg, ip after 4 hr relative to control. It is filed as functional, organism-based. Details: dose 100 mg/kg.
Data set [10] has as its system Mus musculus. The experiment in a line: Anticonvulsant activity in albino Mus musculus (mouse) assessed as protection against maximal electroshock-induced seizures at 30 mg/kg, ip after 4 hr relative to control. The data set is classed as functional, organism-based. The arrangement: dose 30 mg/kg.
The nature of data set [11]: Partition coefficient, log P of the compound. The data set is classed as physicochemical. Conditions: octanol/water.
Data set [12] concerns Mus musculus. The experiment in a line: Neurotoxicity in albino Mus musculus (mouse) assessed as motor impairment at 100 mg/kg, ip after 4 hr relative to control. To be noted: in vivo. The data set is classed as toxicity, organism-based. The arrangement: dose 100 mg/kg, route intraperitoneal.
The test system of data set [13] is Mus musculus. The experiment in a line: Anticonvulsant activity in albino Mus musculus (mouse) assessed as protection against subcutaneous pentylenetetrazol-induced seizures at 30 mg/kg, ip after 4 hr relative to control. The arrangement: dose 30 mg/kg. The data set is classed as functional, organism-based.
For data set [14], the system named is Mus musculus. The experiment in a line: Anticonvulsant activity in albino Mus musculus (mouse) assessed as protection against maximal electroshock-induced seizures at 300 mg/kg, ip after 0.5 hr relative to control. Details: dose 300 mg/kg. The data set is classed as functional, organism-based.
Data set [15] relates to Mus musculus. The experiment in a line: Neurotoxicity in albino Mus musculus (mouse) assessed as motor impairment at 30 mg/kg, ip after 0.5 hr relative to control. The data set is classed as toxicity, organism-based. Details: dose 30 mg/kg, route intraperitoneal. Conditions: in vivo.
Data set [16] deals with Mus musculus. The experiment in a line: Neurotoxicity in albino Mus musculus (mouse) assessed as motor impairment at 300 mg/kg, ip after 0.5 hr relative to control. The data set is classed as toxicity, organism-based. The arrangement: dose 300 mg/kg, route intraperitoneal. Conditions: in vivo.
The test system of data set [17] is Mus musculus. The experiment in a line: Anticonvulsant activity in albino Mus musculus (mouse) assessed as protection against subcutaneous pentylenetetrazol-induced seizures at 300 mg/kg, ip after 0.5 hr relative to control. It is filed as functional, organism-based. The arrangement: dose 300 mg/kg.
Data set [18] has as its system Mus musculus. The experiment in a line: Neurotoxicity in albino Mus musculus (mouse) assessed as motor impairment at 100 mg/kg, ip after 0.5 hr relative to control. It is filed as toxicity, organism-based. The arrangement: dose 100 mg/kg, route intraperitoneal. Conditions: in vivo.
In data set [19] the test system is Mus musculus. The experiment in a line: Neurotoxicity in albino Mus musculus (mouse) assessed as motor impairment at 300 mg/kg, ip after 4 hr relative to control. It is filed as toxicity, organism-based. To be noted: in vivo. The arrangement: dose 300 mg/kg, route intraperitoneal.
Data set [20] has as its system Mus musculus. The experiment in a line: Neurotoxicity in albino Mus musculus (mouse) assessed as motor impairment at 30 mg/kg, ip after 4 hr relative to control. The data set is classed as toxicity, organism-based. Details: dose 30 mg/kg, route intraperitoneal. Conditions: in vivo.
The subject of data set [21] is Mus musculus. The experiment in a line: Anticonvulsant activity in albino Mus musculus (mouse) assessed as protection against subcutaneous pentylenetetrazol-induced seizures at 30 mg/kg, ip after 0.5 hr relative to control. Details: dose 30 mg/kg. The data set is classed as functional, organism-based.
In data set [22] the test system is Mus musculus. The experiment in a line: Anticonvulsant activity in albino Mus musculus (mouse) assessed as protection against maximal electroshock-induced seizures at 100 mg/kg, ip after 4 hr relative to control. It is filed as functional, organism-based. The arrangement: dose 100 mg/kg.
Data set [23] deals with Mus musculus. The experiment in a line: Anticonvulsant activity in albino Mus musculus (mouse) assessed as protection against maximal electroshock-induced seizures at 30 mg/kg, ip after 0.5 hr relative to control. The data set is classed as functional, organism-based. The arrangement: dose 30 mg/kg.
For data set [24], the system named is Mus musculus. The experiment in a line: Anticonvulsant activity in albino Mus musculus (mouse) assessed as protection against maximal electroshock-induced seizures at 300 mg/kg, ip after 4 hr relative to control. It is filed as functional, organism-based. The arrangement: dose 300 mg/kg.
For data set [25], the system named is Mus musculus. The experiment in a line: Anticonvulsant activity in albino Mus musculus (mouse) assessed as protection against subcutaneous pentylenetetrazol-induced seizures at 300 mg/kg, ip after 4 hr relative to control. It is filed as functional, organism-based. Details: dose 300 mg/kg.

Calls of active or inactive are those of the source. The rule behind the calls is not given here.

For `CCC1(c2ccccc2)C(=O)NC(=O)NC1=O` [PHENOBARBITAL], the outcome with Mus musculus [1], in the data set with Mus musculus [2], in the data set with Mus musculus [4] and with Mus musculus [5] was Active. The Activity result in the data set with Mus musculus [3] and in the data set on Mus musculus [6] was “Non-toxic” throughout.
In general, logP refers to a log measure of how a compound divides between an organic and an aqueous phase. The low end stands for lower lipophilicity, the high end for higher lipophilicity. `COc1ccc(C2CC(c3ccccn3)=NN2C(N)=S)cc1` (stereo not given): the result in the data set on Mus musculus [7] and in the data set on Mus musculus [17] was Active. The result with Mus musculus [8], with Mus musculus [9], in the data set with Mus musculus [10], in the data set with Mus musculus [13], in the data set with Mus musculus [14] and in the data set with Mus musculus [21] was inactive. The result in the data set with Mus musculus [22], with Mus musculus [23], in the data set with Mus musculus [24] and in the data set on Mus musculus [25] was inactive. Also, the logP in data set [11] amounted to 2.82. In addition, the Activity entry in the data set on Mus musculus [12], with Mus musculus [15], with Mus musculus [16], in the data set on Mus musculus [18], in the data set with Mus musculus [19] and in the data set on Mus musculus [20] was “Non-toxic” throughout.
